Measurements from patent US4737517A, “Coumarin derivatives, pharmaceutical compositions containing the same, and the use thereof in the treatment of cancer” (FIDIA, S.p.A., priority 1983, dated 1988).

What was measured:
[1] = system: 3 LL carcinoma cells (Lewis lung carcinoma); experiment: Antitumor and antimetastatic activity in mice implanted with 3 LL Lewis lung carcinoma; assay type: in vivo, male mice of the C57B1/6J strain; details: oral; for No. of metastases: lungs, controls 21.8 ± 4.9; for No. of metastases / Primary Tumor Weight: 25th day after transplant; for Primary Tumor Weight: controls 9087 ± 386
Procedure: This activity is to be seen for instance after administration of doses of between 0.2 mg/kg and 10 mg/kg by the oral route, as illustrated by the following experiments.
1×10^5 3 LL carcinoma cells (Lewis lung carcinoma) are implanted by intramuscular injection in the paws of male mice of the C57B1/6J strain, weighing about 20-22 g. This operation is effected as described in the literature (Poggi A. et al. Cancer Res. 37, 272-277, 1977). The growth of the tumor is observed until the 25th day after transplant. On this day the animals are sacrificed and the primary tumor and lungs are removed in order to evaluate the growth of the primary tumor and the number of metastases. Pharmacological treatment by the oral route begins 2 days before transplant of the tumor and continues until sacrifice. The substances are dissolved in tap water and are changed every 24 hours.
Table 2 reports the results obtained with the two coumarin derivatives 19 and 26, previously mentioned in comparison to Warfarin, the well-known […] and antimetastatic compound, which is also a coumarin derivative. Warfarin's antimetastatic activity is widely documented both experimentally (Zacharski, L. R. et al. Cancer 44, 732-741, 1979 and Poggi, A. et al. Lancet i 163-164, 1978) and clinically (Zacharski, L. R. et al. J. Am. Med. Assoc. 245, 831-835, 1981). […] This effect is measured by the number of metastases (Zacharski, L. R. et al. Cancer 44, 732-741, 1979 and Poggi, A. et al. Lancet i 163-164, 1978).
(§1) The anticoagulating effect measured by the "thrombotest", the antitumor effect measured by the decrease in weight of the primary tumor and the antimetastatic effect shown as the number of metasteses present in the lungs, are reported in Table 2. While the antitumor and antimetastatic effects of Warfarin and the two new products according to the present invention are roughly equal, the strong anticoagulating effect is absent in the two new products of the invention. This is a completely unexpected result.

[2] = system: 3 LL carcinoma cells (Lewis lung carcinoma); details: number of metastases; mice of the C57B1/6J strain; cited from earlier work
[3] = system: lung carcinoma; details: cited from earlier work
[4] = system: coagulation; experiment: Thrombotest on capillary blood (anticoagulating effect); assay type: in vivo, mice (C57B1/6J); details: oral, controls 31.4 ± 1.7
Procedure: In a separate experiment, the anticoagulating activity of the compounds is verified on the same strain of mice at the same doses used for antimetastatic activity evaluation.
The effect on coagulation is measured by a thrombotest on capillary blood taken from the retroorbital cavity (Owren, P. A. et al. Lancet ii, 754-758, 1959).
as §1

[5] = Acute toxicity in the rat, oral; parameters: species or system rat (Sprague Dawley); details: in vivo, aqueous solution, up to 14 days, Litchfield and Wilcoxon
Procedure: Acute toxicity in the rat: groups of Sprague Dawley rats (male+female) are treated with graduated doses ranging from 0.125 g/kg of body weight to 10 g/kg of body weight of the above mentioned compounds in aqueous solution. The compounds are administered orally by intubation. Subsequent death may be immediate or may occur at any time up to 14 days after treatment.
The lethal dose 50 (LD50), that is, the dose which causes the death of 50% of the animals, is evaluated by the method of Litchfield and Wilcoxon (J. Pharmacol. Ex. Ther. 96, 99-113, 1949).

[6] = system: platelet hyper-aggregation induced by ADP; experiment: Inhibition of ADP-induced platelet hyperaggregation in vitro (Born's method, aggregometer ELVI 840); assay type: cell-based, New Zealand rabbits; details: Oryctolagus cuniculus, 0.5 h, read-out: Inhibition of platelet hyper-aggregation induced by ADP
Procedure: Two separate centrifugations are effected (at 1000 rpm and at 6000 rpm), thus obtaining PRP ([…]) and PPP ([…]); the first is diluted with the second in order to obtain a platelet concentration of 300,000 per mm^3 (the count is effected in a Buerker apparatus). The compounds with a platelet antiaggregating activity of the present invention are added at the desired concentrations and incubated for 30 minutes at 37° C. with the aggregating agents. […] The various compounds represented by the numbers in the first column are identifiable by the numbers in the second column which refer to the examples described below in this specification.

[7] = Acute toxicity in the mouse, oral; parameters: species or system mouse (Swiss); details: in vivo, aqueous solution, up to 14 days, Litchfield and Wilcoxon
Procedure: Acute toxicity in the mouse: groups of Swiss mice (male+female) are treated with graduated doses ranging from 0.125 g/kg to 5 g/kg of body weight with compounds 19 to 26. The compounds are administered orally by intubation and dissolved in water.
Subsequent death may be immediate or may occur at any time up to 14 days after treatment. The lethal dose 50 (LD50), that is, the dose which causes the death of 50% of the animals, is evaluated by the method of Litchfield and Wilcoxon (J. Pharmacol. Exp. Ther. 96, 99-113, 1949).

[8] = 1st adminis. 2.1 mg/kg, 2nd adminis. 0.5 mg/kg

CC(=O)CC(c1ccccc1)c1c(O)c2ccccc2oc1=O (stereo not shown) [Warfarin, reference compound]
No. of metastases ([1]; doses not given): 12.4 ± 0.9 | Primary Tumor Weight ([1]; doses not given): 6274 ± 690 mg | antimetastatic effect on Lewis lung carcinoma (in words) [2]: has an antimetastatic effect | anticoagulating activity in antitumor therapy (in words) ([3]; human, in vivo): strong anticoagulating activity | survival time in patients with lung carcinoma (in words) ([3]; in association with chemotherapy and radiation): prolongs survival time | Thrombotest ([4]; doses not given): 180

C=CCc1c(O)c(CN2CCN(CCO)CC2)cc2c(C)cc(=O)oc12.ClOCl [Compound 26, 4-methyl-6-[[4-(2-hydroxyethyl)-1-piperazinyl]methyl]-7-hydroxy-8-allylcumarin dichlorohydrate]
antitumoral and antimetastatic activity (in words) ([1]; in vivo on mice): antitumoral and antimetastatic activity | No. of metastases [1, 8]: 9.8 ± 2.8 | Primary Tumor Weight [1, 8]: 6789 ± 349 mg | LD50 at 336 h [5]: 3160 mg/kg | inhibition at 100 µg/mL [6]: 23% | Thrombotest [4, 8]: 33.4 ± 1.2 | LD50 at 336 h [7]: 1950 mg/kg
